Like-named read-outs stand apart in the source and are kept apart here.
Legend:
Format in all cases: in vivo
Pyricularia oryzae = settings: for Test C disease control rating: rice blast; for Test C disease control rating (100 = 100% disease control, 0 = no disease control): rice seedlings sprayed to run-off, inoculated the following day, rating relative to controls, unmarked compounds (standard test rate)
Phytophthora infestans = settings: for Test D disease control rating: tomato late blight; for Test D disease control rating (100 = 100% disease control, 0 = no disease control): tomato seedlings sprayed to run-off, inoculated the following day, rating relative to controls, unmarked compounds (standard test rate)
Puccinia recondita = experiment: Test B: wheat leaf rust, preventive spray on wheat seedlings; settings: for Test B disease control rating: wheat leaf rust; for Test B disease control rating (100 = 100% disease control, 0 = no disease control): wheat seedlings sprayed to run-off, inoculated the following day, rating relative to controls, unmarked compounds (standard test rate)
Summary of the method: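 Wheat seedlings were sprayed to run-off with compound (3% acetone, 250 ppm Trem 014), then inoculated with P. recondita spores the next day. They were held 24 h saturated at 20 °C, then 6 days at 20 °C. Ratings are 0–100% disease control versus controls.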

Botrytis cinerea = experiment: Test E: gray mold, preventive spray on cucumber seedlings; settings: for Test E disease control rating: gray mold on cucumber; for Test E disease control rating (100 = 100% disease control, 0 = no disease control): cucumber seedlings sprayed to run-off, inoculated the following day, rating relative to controls, unmarked compounds (standard test rate)
Summary of the method: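 Compounds in 3% acetone were suspended with 250 ppm Trem 014 surfactant and sprayed to run-off on cucumber seedlings. B. cinerea spores were inoculated next day, then 48 h saturated humidity at 20° C and 5 days at 20° C. Disease control rated 0–100% versus controls.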

[1] = tested on: Eiysiphe graminis f. sp. tritici; experiment: Test A: wheat powdery mildew, preventive spray on wheat seedlings; settings: for Test A disease control rating: wheat powdery mildew; for Test A disease control rating (100 = 100% disease control, 0 = no disease control): wheat seedlings sprayed to run-off, inoculated the following day, rating relative to controls, unmarked compounds (standard test rate)
Summary of the method: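 Compounds (3% acetone, 250 ppm Trem 014) sprayed to run-off on wheat seedlings, inoculated next day with spore dust. Incubated 7 days at 20° C before disease rating, 0–100% control relative to untreated controls.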

[2] = 100 = 100% disease control, 0 = no control, unmarked entries (standard test concentration)
[3] = 100 = 100% disease control, 0 = no control relative to controls, unmarked entries (standard test concentration)

| SMILES | Test C disease control rating (Pyricularia oryzae; [2]) [%] | Test D disease control rating (Phytophthora infestans; [2]) [%] | Test B disease control rating (Puccinia recondita; [2]) [%] | Test E disease control rating (Botrytis cinerea; [2]) [%] | Test A disease control rating [1, 3] [%] | Test C disease control rating (100 = 100% disease control, 0 = no disease control) (Pyricularia oryzae) [%] | Test D disease control rating (100 = 100% disease control, 0 = no disease control) (Phytophthora infestans) [%] | Test B disease control rating (100 = 100% disease control, 0 = no disease control) (Puccinia recondita) [%] | Test E disease control rating (100 = 100% disease control, 0 = no disease control) (Botrytis cinerea) [%] | Test A disease control rating (100 = 100% disease control, 0 = no disease control) [1] [%] | also measured |
| --- | --- | --- | --- | --- | --- | --- | --- | --- | --- | --- | --- |
| C[C@H](COc1ccc(F)c(F)c1)NC(=O)C(C#N)C(C)(C)C (single isomer, unassigned) [30b] | 97 | 0 | 27 | 0 | 77 | – | – | – | – | – | – |
| CC(COc1c(F)cccc1F)NC(=O)C(C#N)C(C)(C)C (mixture of isomers) [29a] | 74 | 35 | 0 | 6 | 0 | – | – | – | – | – | – |
| CCC1(C(=O)NC(C)COc2c(F)cc(F)cc2F)C(C)C1(Cl)Cl (centres unmarked) [compound 237] | – | – | – | – | – | 53 | 9 | 0 | 0 | 62 | – |
| CCC(=CCNC(=O)C1(CC)C(C)C1(Cl)Cl)c1cc(Cl)ccc1Cl (centres unmarked) [compound 262] | – | – | – | – | – | 53 | 99 | 0 | 0 | 98 | – |
| C[C@H](COc1ccc(Cl)cc1Cl)NC(=O)C(C#N)C(C)(C)C (single isomer, unassigned) [32a] | 91 | 0 | 27 | 0 | 0 | – | – | – | – | – | – |
| C[C@H](COc1cc(F)c(F)cc1F)NC(=O)C(C#N)C(C)(C)C (single isomer, unassigned) [188b] | 100 | 35 | 0 | 45 | 0 | – | – | – | – | – | – |
| CC(COc1c(F)ccc(F)c1C#N)NC(=O)C(C#N)C(C)(C)C (mixture of isomers) [compound 208] | 94 | 45 | 28 | 0 | 0 | – | – | – | – | – | – |
| CC(COc1cc(F)c(F)cc1C#N)NC(=O)C(C#N)C(C)C(C)(C)C (mixture of isomers) [compound 278] | – | – | – | – | – | 32 | 0 | 67 | 94 | 56 | – |
| CC(COc1ccccc1F)NC(=O)C(C#N)C(C)C(C)(C)C (mixture of isomers) [compound 57] | – | – | – | – | – | – | – | – | – | – | Test C disease control rating (Pyricularia oryzae; tested at 40 ppm): 85%; Test D disease control rating (Phytophthora infestans; tested at 40 ppm): 0%; Test B disease control rating (Puccinia recondita; tested at 40 ppm): 0%; Test E disease control rating (Botrytis cinerea; tested at 40 ppm): 0%; Test A disease control rating ([1]; tested at 40 ppm): 91% |
| CCC1(C(=O)NC(C)COc2ccccc2F)C(C)C1(Cl)Cl (mixture of isomers) [78a] | 90 | 0 | 93 | 74 | 0 | – | – | – | – | – | – |

— US6642392B1 (priority 1997, dated 2003)
